One may read the IC50 as the concentration that gives 50% inhibition.

Each structure is given as a SMILES string.

For one assay, the target named is Recombinant human cathepsin S (CatS) (Homo sapiens, UniProt P25774). In words: Recombinant human cathepsin S (CatS) inhibition assay, fluorogenic substrate Z-Valine-Valine-Arginine-AMC.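 Further: Baculovirus-expressed CatS in pH 5.0 sodium acetate buffer with DTT and NaCl, fluorescence read each minute over 20 min, inhibition derived from rate slope.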
Sequence of Recombinant human cathepsin S (CatS) (P25774 115-331): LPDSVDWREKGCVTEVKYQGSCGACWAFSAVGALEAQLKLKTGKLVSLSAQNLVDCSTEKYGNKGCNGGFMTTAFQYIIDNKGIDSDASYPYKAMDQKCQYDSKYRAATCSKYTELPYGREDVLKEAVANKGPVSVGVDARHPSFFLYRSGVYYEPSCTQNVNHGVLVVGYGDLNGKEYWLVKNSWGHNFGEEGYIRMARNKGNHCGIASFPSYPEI
Details: not given
Regarding `CS(=O)(=O)N1CCc2c(c(-c3ccc(Cl)c(CCCNS(=O)(=O)c4ccc(Cl)cc4)c3)nn2CCCN2CCOCC2)C1` [Example 83, 4-Chloro-N-(3-{2-chloro-5-[5-methanesulfonyl-1-(3-morpholin-4-yl-propyl)-4,5,6,7-tetrahydro-1H-pyrazolo[4,3-c]pyridin-3-yl]-phenyl}-propyl)-benzenesulfonamide], the IC50 was found to be 7100 nM. Consider `CN(C)C(=O)N1CCc2c(c(-c3ccc(Cl)c(C#Cc4ccc(CNCc5ccc(Cl)cc5)cc4)c3)nn2CCCN2CCOCC2)C1` [Example 498, 3-(4-Chloro-3-{[4-({[(4-chlorophenyl)methyl]amino}methyl)phenyl]ethynyl}phenyl)-N,N-dimethyl-1-(3-morpholin-4-ylpropyl)-1,4,6,7-tetrahydro-5H-pyrazolo[4,3-c]pyridine-5-carboxamide], for which the IC50 is 4560 nM. Regarding `CS(=O)(=O)N1CCc2c(c(-c3ccc(C(F)(F)F)c(C#CCNS(=O)(=O)c4ccccc4)c3)nn2CC(O)CN2CCOCC2)C1` (centres unmarked) [Example 305, N-(3-{5-[1-(2-Hydroxy-3-morpholin-4-ylpropyl)-5-(methylsulfonyl)-4,5,6,7-tetrahydro-1H-pyrazolo[4,3-c]pyridin-3-yl]-2-(trifluoromethyl)phenyl}prop-2-yn-1-yl)benzenesulfonamide], the half-inhibitory concentration (IC50) worked out at 3950 nM. For `CS(=O)(=O)N1CCc2c(c(-c3ccc(Cl)c(CCCN4CCCCCC4)c3)nn2CCCN2CCC(N3CCCC3=O)CC2)C1` [Example 107, 1-[1-(3-{3-[3-(3-Azepan-1-yl-propyl)-4-chloro-phenyl]-5-methanesulfonyl-4,5,6,7-tetrahydro-pyrazolo[4,3-c]pyridin-1-yl}-propyl)-piperidin-4-yl]-pyrrolidin-2-one], the 50% inhibitory concentration (IC50) was determined as 500 nM. Consider `CS(=O)(=O)N1CCc2c(c(-c3ccc(Cl)c(/C=C\c4ccccc4)c3)nn2CCCN2CCOCC2)C1` [Example 67, 3-(4-Chloro-3-Z-styryl-phenyl)-5-methanesulfonyl-1-(3-morpholin-4-yl-propyl)-4,5,6,7-tetrahydro-1H-pyrazolo[4,3-c]pyridine], for which the IC50 came out at 3050 nM. On to `CS(=O)(=O)N1CCc2c(c(-c3ccc(Cl)c(C#Cc4ccc(CCCC(=O)O)cc4)c3)nn2CCCN2CCOCC2)C1` [Example 8, 4-(4-{2-Chloro-5-[5-methanesulfonyl-1-(3-morpholin-4-yl-propyl)-4,5,6,7-tetrahydro-1H-pyrazolo[4,3-c]pyridin-3-yl]-phenylethynyl}-phenyl)-butyric acid], for which the IC50 amounted to 190 nM. As for `CS(=O)(=O)N1CCc2c(c(-c3ccc(Cl)c(CCCNS(=O)(=O)c4ccccc4[N+](=O)[O-])c3)nn2CCCN2CCC(N3CCCC3=O)CC2)C1` [Example 89, N-{3-[2-Chloro-5-(5-methanesulfonyl-1-{3-[4-(2-oxo-pyrrolidin-1-yl)-piperidin-1-yl]-propyl}-4,5,6,7-tetrahydro-1H-pyrazolo[4,3-c]pyridin-3-yl)-phenyl]-propyl}-2-nitro-benzenesulfonamide], the IC50 turned out to be 290 nM.

The same assay, now with this note: CatS IC50.
`CS(=O)(=O)N1CCc2c(c(-c3ccc(Cl)c(C#Cc4ccc(CNCc5ccc(Cl)cc5)cc4)c3)nn2CCCN2CCSCC2)C1` [Example 183, 1-[4-({2-Chloro-5-[5-(methylsulfonyl)-1-(3-thiomorpholin-4-ylpropyl)-4,5,6,7-tetrahydro-1H-pyrazolo[4,3-c]pyridin-3-yl]phenyl}ethynyl)phenyl]-N-[(4-chlorophenyl)methyl]methanamine]: the IC50 amounted to 80 nM. For the compound `CC(C)CN1CCc2cc(C#Cc3cc(-c4nn(CCCN5CCOCC5)c5c4CN(S(C)(=O)=O)CC5)ccc3Cl)ccc2C1` [Example 523, 6-({2-Chloro-5-[5-(methylsulfonyl)-1-(3-morpholin-4-ylpropyl)-4,5,6,7-tetrahydro-1H-pyrazolo[4,3-c]pyridin-3-yl]phenyl}ethynyl)-2-(2-methylpropyl)-1,2,3,4-tetrahydroisoquinoline], the IC50 is 530 nM.

Turning to `Cc1ccsc1CNCc1ccc(C#Cc2cc(-c3nn(CCCN4CCOCC4)c4c3CN(S(C)(=O)=O)CC4)ccc2Cl)cc1` [Example 424, 1-[4-({2-Chloro-5-[5-(methylsulfonyl)-1-(3-morpholin-4-ylpropyl)-4,5,6,7-tetrahydro-1H-pyrazolo[4,3-c]pyridin-3-yl]phenyl}ethynyl)phenyl]-N-[(3-methyl-2-thienyl)methyl]methanamine], the IC50 was found to be 200 nM. For the compound `C[C@H]1COCCN1CCCn1nc(-c2ccc(Cl)c(C#Cc3ccc(CNCc4cccs4)cc3)c2)c2c1CCN(S(C)(=O)=O)C2` [Example 433, 1-[4-({2-Chloro-5-[1-{3-[(3S)-3-methylmorpholin-4-yl]propyl}-5-(methylsulfonyl)-4,5,6,7-tetrahydro-1H-pyrazolo[4,3-c]pyridin-3-yl]phenyl}ethynyl)phenyl]-N-(2-thienylmethyl)methanamine], the IC50 worked out at 240 nM. On to `CS(=O)(=O)N1CCc2c(c(-c3ccc(Cl)c(C#Cc4ccc(CNCc5ccc(Cl)cc5)cc4)c3)nn2CCCN2CC[S+]([O-])CC2)C1` [Example 537, 1-{4-[(2-Chloro-5-{5-(methylsulfonyl)-1-[3-(1-oxidothiomorpholin-4-yl)propyl]-4,5,6,7-tetrahydro-1H-pyrazolo[4,3-c]pyridin-3-yl}phenyl)ethynyl]phenyl}-N-[(4-chlorophenyl)methyl]methanamine], for which the concentration for half-maximal inhibition (IC50) is 280 nM.

In the case of `C=CCNCc1ccc(C#Cc2cc(-c3nn(CCCN4CCOCC4)c4c3CN(S(C)(=O)=O)CC4)ccc2Cl)cc1` [Example 349, N-{[4-({2-Chloro-5-[5-(methylsulfonyl)-1-(3-morpholin-4-ylpropyl)-4,5,6,7-tetrahydro-1H-pyrazolo[4,3-c]pyridin-3-yl]phenyl}ethynyl)phenyl]methyl}prop-2-en-1-amine], the half-maximal inhibitory concentration (IC50) amounted to 550 nM. As for `CS(=O)(=O)N1CCc2c(c(-c3ccc(Cl)c(C#Cc4ccc(CN[C@@H](CO)c5ccccc5)cc4)c3)nn2CCCN2CCOCC2)C1` [Example 209, (2R)-2-({[4-({2-Chloro-5-[5-(methylsulfonyl)-1-(3-morpholin-4-ylpropyl)-4,5,6,7-tetrahydro-1H-pyrazolo[4,3-c]pyridin-3-yl]phenyl}ethynyl)phenyl]methyl}amino)-2-phenylethanol], the concentration for half-maximal inhibition (IC50) was determined as 100 nM. Consider `CS(=O)(=O)NC1CCN(CCCn2nc(-c3ccc(Cl)c(C#Cc4ccc(CNCc5ccc(Cl)cc5)cc4)c3)c3c2CCN(S(C)(=O)=O)C3)CC1` [Example 359, N-(1-{3-[3-(4-Chloro-3-{[4-({[(4-chlorophenyl)methyl]amino}methyl)phenyl]ethynyl}phenyl)-5-(methylsulfonyl)-4,5,6,7-tetrahydro-1H-pyrazolo[4,3-c]pyridin-1-yl]propyl}piperidin-4-yl)methanesulfonamide], for which the 50% inhibitory concentration (IC50) amounted to 80 nM.

Still in this assay, the particulars now being: CatS IC50, Table 2; average of results obtained.
In the case of `CS(=O)(=O)N1CCc2c(c(-c3ccc(Cl)c(C#Cc4ccc(F)cc4)c3)nn2CCCN2CCOCC2)C1` [Example 31, 3-[4-Chloro-3-(4-fluoro-phenylethynyl)-phenyl]-5-methanesulfonyl-1-(3-morpholin-4-yl-propyl)-4,5,6,7-tetrahydro-1H-pyrazolo[4,3-c]pyridine], the IC50 worked out at 440 nM. In the case of `O=C(c1ccco1)N1CCc2c(c(-c3ccc(Cl)c(C#Cc4ccc(Cl)cc4)c3)nn2CCCN2CCOCC2)C1` [Example 138, [3-[4-Chloro-3-(4-chloro-phenylethynyl)-phenyl]-1-(3-morpholin-4-yl-propyl)-1,4,6,7-tetrahydro-pyrazolo[4,3-c]pyridin-5-yl]-furan-2-yl-methanone], the concentration for half-maximal inhibition (IC50) was found to be 350 nM.

(Values after patent US20080200454A1, “CARBON-LINKED TETRAHYDRO-PYRAZOLO-PYRIDINE MODULATORS OF CATHEPSIN S” (priority 2007, published 2008).)
